According to patent publication US12383539B2 (Cavion, Inc., priority 2018, dated 2025):

Experiments:
[1] = test system: patients with essential tremor; test: T-CALM: TETRAS performance subscale (TETRAS-PS); conditions: for TETRAS-PS total score, change from baseline to Day 28, LS mean difference from placebo (95% CI) / TETRAS-PS total score, change from baseline to Day 28, LS mean (SE): ANCOVA; for TETRAS-PS total score, change from baseline to Day 28, LS mean (SE): multiple imputation
[2] = test system: patients with essential tremor; test: T-CALM: Patient Global Impression of Change (PGIC); assay type: in vivo, human
Source text: Treatment success as measured by PGIC was summarized using descriptive statistics.
The Patient Global Impression of Change (PGIC) will quantify a patient's impression of improvement or decline over time with respect to ET treatment (see, e.g., Guy, Assessment Manual for Psychopharmacology. Rockville, MD: Department of Health, Education, and Welfare Public Health Service Alcohol, Drug Abuse, and Mental Health Administration, 1976). The patient will use the PGIC scale to assess current health status versus initiation of treatment and calculate the difference.

Structure (SMILES): CC(C)c1ccc(CC(=O)N[C@H](C)c2ccc(OCC(F)(F)F)cn2)cc1 [CX-8998]
- responders: improvement of at least 5 points by TETRAS-PS score, % ([1]; Day 15): (30.8%)
- TETRAS-PS change from baseline 0 change: subjects, number (%) ([1]; Day 15, N = 39): 2 (5.1%)
- TETRAS-PS change from baseline >0 to 1 point improvement: subjects, number (%) ([1]; Day 15, N = 39): 3 (7.7%)
- TETRAS-PS change from baseline >0 to 1 point worsening: subjects, number (%) ([1]; Day 15, N = 39): 2 (5.1%)
- TETRAS-PS change from baseline >1 to 2.5 point improvement: subjects, number (%) ([1]; Day 15, N = 39): 4 (10.3%)
- TETRAS-PS change from baseline >1 to 2.5 point worsening: subjects, number (%) ([1]; Day 15, N = 39): 5 (12.8%)
- TETRAS-PS change from baseline >2.5 to 5 point improvement: subjects, number (%) ([1]; Day 15, N = 39): 10 (25.6%)
- TETRAS-PS change from baseline >2.5 to 5 point worsening: subjects, number (%) ([1]; Day 15, N = 39): 2 (5.1%)
- TETRAS-PS change from baseline >5 to 10 point improvement: subjects, number (%) ([1]; Day 15, N = 39): 8 (20.5%)
- TETRAS-PS change from baseline >5 to 10 point worsening: subjects, number (%) ([1]; Day 15, N = 39): 0
- TETRAS-PS change from baseline >10 point improvement: subjects, number (%) ([1]; Day 15, N = 39): 3 (7.7%)
- TETRAS-PS change from baseline >10 point worsening: subjects, number (%) ([1]; Day 15, N = 39): 0
- responders: improvement of at least 5 points by TETRAS-PS score, % ([1]; Day 28): (43.2%)
- responders: improvement of at least 5 points by TETRAS-PS score, number ([1]; Day 28, N 37): 16
- TETRAS-PS change from baseline 0 change: subjects, number (%) ([1]; Day 28, N = 37): 1 (2.6%)
- TETRAS-PS change from baseline >0 to 1 point improvement: subjects, number (%) ([1]; Day 28, N = 37): 6 (15.4%)
- TETRAS-PS change from baseline >0 to 1 point worsening: subjects, number (%) ([1]; Day 28, N = 37): 2 (5.1%)
- TETRAS-PS change from baseline >1 to 2.5 point improvement: subjects, number (%) ([1]; Day 28, N = 37): 5 (12.8%)
- TETRAS-PS change from baseline >1 to 2.5 point worsening: subjects, number (%) ([1]; Day 28, N = 37): 1 (2.6%)
- TETRAS-PS change from baseline >2.5 to 5 point improvement: subjects, number (%) ([1]; Day 28, N = 37): 11 (28.2%)
- TETRAS-PS change from baseline >2.5 to 5 point worsening: subjects, number (%) ([1]; Day 28, N = 37): 1 (2.6%)
- TETRAS-PS change from baseline >5 to 10 point improvement: subjects, number (%) ([1]; Day 28, N = 37): 8 (20.5%)
- TETRAS-PS change from baseline >5 to 10 point worsening: subjects, number (%) ([1]; Day 28, N = 37): 0
- TETRAS-PS change from baseline >10 point improvement: subjects, number (%) ([1]; Day 28, N = 37): 4 (10.3%)
- TETRAS-PS change from baseline >10 point worsening: subjects, number (%) ([1]; Day 28, N = 37): 0
- TETRAS-PS scored by investigators (in person), change from baseline, LS mean (±SE) ([1]; Day 28, analysis of Example 25): −4.8±0.80
- TETRAS-PS scored by independent video raters, change from baseline, LS mean (±SE) ([1]; Day 28, primary endpoint): −1.8±0.81
- TETRAS-PS total score, Mean (SD) ([1]; Day 28, Investigator Rated): 23.6 (5.50)
- TETRAS-PS total score, change from baseline to Day 28, Mean (SD) ([1]; Independent Video Raters): −1.6 (4.36)
- TETRAS-PS total score, change from baseline to Day 28, Median ([1]; Independent Video Raters): −1.5
- TETRAS-PS total score, change from baseline to Day 28, LS mean difference from placebo (95% CI) ([1]; Independent Video Raters): 0.5 (−1.5, 2.5)
- TETRAS-PS total score, change from baseline to Day 28, LS mean (SE) ([1]; Independent Video Raters): −1.8 (0.81)
- TETRAS-PS total score, change from baseline to Day 28, LS mean difference from placebo (95% CI) ([1]; Investigator Rated): −2.0 (−4.0, 0.0)
- TETRAS-PS total score, change from baseline to Day 28, LS mean (SE) ([1]; Investigator Rated): −4.8 (0.80)
- TETRAS-PS total score, change from baseline to Day 28, Mean (SD) ([1]; subgroup No Concurrent Tremor Medication at Day 1, Independent Video Raters): −2.5 (5.33)
- PGIC score 0-no change: subjects, number (%) ([2]; Day 15): 11 (28%)
- PGIC score 1-minimally improved: subjects, number (%) ([2]; Day 15): 17 (44%)
- PGIC score 2-much improved: subjects, number (%) ([2]; Day 15): 8 (21%)
- PGIC score 3-very much improved: subjects, number (%) ([2]; Day 15): 1 (3%)
- PGIC score (rescaled −3 to 3), Mean (SD) ([2]; Day 15): 1 (1.0)
- PGIC score (rescaled −3 to 3), Median (minimum, maximum) ([2]; Day 15): 1 (−2, 3)
- PGIC score −1-minimally worse: subjects, number (%) ([2]; Day 15): 1 (3%)
- PGIC score −2-much worse: subjects, number (%) ([2]; Day 15): 1 (3%)
- PGIC score −3-very much worse: subjects, number (%) ([2]; Day 15): 0
- PGIC category 0 No change, number (%) of patients ([2]; Day 15, N = 39): 11 (28%)
- PGIC category 1 Minimally improved, number (%) of patients ([2]; Day 15, N = 39): 17 (44%)
- PGIC category 2 Much improved, number (%) of patients ([2]; Day 15, N = 39): 8 (21%)
- PGIC category 3 Very much improved, number (%) of patients ([2]; Day 15, N = 39): 1 (3%)
- PGIC category −1 Minimally worse, number (%) of patients ([2]; Day 15, N = 39): 1 (3%)
- PGIC category −2 Much worse, number (%) of patients ([2]; Day 15, N = 39): 1 (3%)
- PGIC category −3 Very much worse, number (%) of patients ([2]; Day 15, N = 39): 0
- PGIC: No Change, number of subjects ([2]; Day 15, total 39): 11
- PGIC: Worsened, number of subjects ([2]; Day 15, total 39): 2
- PGIC score, LS mean (SE) ([2]; Day 15, ANCOVA): 0.9 (0.17)
- PGIC score, LS mean difference from placebo (95% CI) ([2]; Day 15, ANCOVA): 0.7 (0.2, 1.1)
- PGIC score 0-no change: subjects, number (%) ([2]; Day 28): 14 (36%)
- PGIC score 1-minimally improved: subjects, number (%) ([2]; Day 28): 10 (26%)
- PGIC score 2-much improved: subjects, number (%) ([2]; Day 28): 7 (18%)
- PGIC score 3-very much improved: subjects, number (%) ([2]; Day 28): 3 (8%)
- PGIC score (rescaled −3 to 3), Mean (SD) ([2]; Day 28): 1 (1.3)
- PGIC score (rescaled −3 to 3), Median (minimum, maximum) ([2]; Day 28): 1 (−3, 3)
- PGIC score −1-minimally worse: subjects, number (%) ([2]; Day 28): 1 (3%)
- PGIC score −2-much worse: subjects, number (%) ([2]; Day 28): 1 (3%)
- PGIC score −3-very much worse: subjects, number (%) ([2]; Day 28): 1 (3%)
- PGIC: Improved, number of subjects ([2]; Day 28, total 37): 20
- PGIC: No Change, number of subjects ([2]; Day 28, total 37): 14
